conditions: not given

Row | Structure (SMILES) | log10 Koc (L/kg) | log10 vapour pressure (mmHg) | melting point | boiling point | log10 Henry constant (atm·m³/mol) | log10 Koa | ready biodegradability
1 | C=C(C)CN(CC)c1c([N+](=O)[O-])cc(C(F)(F)F)cc1[N+](=O)[O-] | 3.6 | -4.06 | 55.5 °C | – | – | – | –
2 | C=C(C)C(=O)OCCCCCCCCCCCC | – | – | -7 °C | – | – | – | –
3 | C1CSC1 | – | 1.72 | -73.2 °C | 95 °C | – | – | –
4 | CC(O)C(Cl)(Cl)Cl (stereo not drawn) | – | – | 50.5 °C | 163 °C | – | – | –
5 | CN(C)c1ccc(N(C)C)cc1 | – | – | 51 °C | 260 °C | – | – | –
6 | CC(=O)Nc1cccc(O)c1 | – | – | 147 °C | – | – | – | –
7 | O=C(O)c1cc(Cl)ccc1[N+](=O)[O-] | – | – | 139 °C | – | – | – | –
8 | CC(C)OC(=O)C(Cl)Cl | – | – | – | 164 °C | – | – | –
9 | FC(F)(F)C(F)(F)C(F)(F)C(F)(F)C(F)(F)C(F)(F)C(F)(F)Cl | – | – | – | 108 °C | – | – | –
10 | Cc1cc(C)cc(C(=O)O)c1 | – | – | 171 °C | – | – | – | –
11 | CC(=O)c1ccc(Cl)c(Cl)c1 | – | – | 76 °C | – | – | – | –
12 | Cc1cccc(C)c1N(Cn1cccn1)C(=O)CCl | – | – | 85 °C | – | -9.25 | – | –
13 | Clc1cc2oc3ccc(Cl)c(Cl)c3c2c(Cl)c1Cl | – | – | – | – | – | 10.5 | –
14 | Nc1ccc(Br)cc1 | 1.96 | – | 66.4 °C | – | – | – | –
15 | COc1ccc2c(c1OC)C(=O)O[C@@H]2[C@H]1c2cc3c(cc2CCN1C)OCO3 | – | – | 132 °C | – | – | – | –
16 | C=CC1CC=CCC1 (stereo not drawn) | – | 1.2 | -109 °C | 128 °C | – | – | not readily biodegradable
17 | C=CCOCC=C | – | – | -6 °C | 94 °C | – | – | –
18 | CN1[C@@H]2CCC[C@H]1CC2 | – | – | – | 166 °C | – | – | –
19 | O=[N+]([O-])c1ccc2c(c1)NCC2 | – | – | 68 °C | – | – | – | –
20 | Nc1nc(N)nc(NC2CC2)n1 | 2.3 | -8.47 | 225 °C | – | – | – | –
21 | C[C@]12CC[C@H](O)C=C1CC[C@@H]1[C@@H]2CC[C@]2(C)[C@@H](c3ccc(=O)oc3)CC[C@]12O | – | – | 235 °C | – | – | – | –

Row | Structure (SMILES) | log10 Koc (L/kg) | log10 vapour pressure (mmHg) | melting point | boiling point | log10 Henry constant (atm·m³/mol) | log10 Koa | ready biodegradability
22 | O=S(=O)(Cl)c1ccc2ccccc2c1 | – | – | 81 °C | – | – | – | –
23 | C#CC(C)O (stereo not drawn) | – | – | -3 °C | 106 °C | – | – | –
24 | CCO[Si](Cl)(OCC)OCC | – | – | -51 °C | 156 °C | – | – | –
25 | CCCN(CCC)c1c([N+](=O)[O-])cc(C(F)(F)F)cc1[N+](=O)[O-] | 4.2 | -4.34 | 49 °C | – | -3.99 | – | not readily biodegradable
26 | CCCCCCCCCCC(C)=O | – | -1.69 | 21 °C | 246 °C | – | – | –
27 | CCOC(OCC)N(C)C | – | – | – | 129 °C | – | – | –
28 | OC1c2ccccc2CCc2ccccc21 | – | – | 92 °C | – | – | – | –
29 | N#CCCC[Si](Cl)(Cl)Cl | – | – | – | 238 °C | – | – | –
30 | NCc1ccccc1 | – | -0.185 | – | 185 °C | – | – | readily biodegradable
31 | COc1cc(OC)nc(NC(=O)NS(=O)(=O)c2ncccc2C(=O)N(C)C)n1 | 1.48 | – | 142 °C | – | – | – | –
32 | CC[N+](CC)(CCNC(=O)C(=O)NCC[N+](CC)(CC)Cc1ccccc1Cl)Cc1ccccc1Cl.[Cl-].[Cl-] | – | – | 198 °C | – | – | – | –
33 | CCCS(=O)(=O)CCC | – | -2.39 | 29.5 °C | 270 °C | – | – | –
34 | C[Si](C)(C)O[Si](C)(C)O[Si](C)(C)O[Si](C)(C)O[Si](C)(C)O[Si](C)(C)O[Si](C)(C)C | – | -2.5 | -78 °C | 270 °C | – | – | –
35 | Cn1c(=O)c2c(ncn2CC(O)CO)n(C)c1=O (stereo not drawn) | – | – | 162 °C | – | – | – | –
36 | C=C(CC)c1ccccc1 | – | – | – | 182 °C | – | – | –
37 | C=CC(=O)OC | – | 1.94 | -76.5 °C | 80.2 °C | – | – | readily biodegradable
38 | N#CCC(=O)c1ccc(N)cc1 | – | – | 159 °C | – | – | – | –
39 | OC1CCCCCCCCC1 | – | – | 40.5 °C | – | – | – | –
40 | CC(C)(O)C(C)(C)O | – | – | 43 °C | – | – | – | –
41 | Nc1ccc2c3c(cccc13)-c1ccccc1-2 | – | – | 116 °C | – | – | – | –
42 | CCCCOc1ccc(/N=N/c2ccc(N)nc2N)cn1 | – | – | 129 °C | – | – | – | –

Row | Structure (SMILES) | log10 Koc (L/kg) | log10 vapour pressure (mmHg) | melting point | boiling point | log10 Henry constant (atm·m³/mol) | log10 Koa | ready biodegradability
43 | COc1cccc([N+](=O)[O-])c1C | – | – | 55 °C | – | – | – | –
44 | O=C(O)c1ccc(Br)c([N+](=O)[O-])c1 | – | – | 204 °C | – | – | – | –
45 | O=S(=O)(c1ccccc1)c1ccccc1 | – | – | 128 °C | 279 °C | – | – | –
46 | ClC1=CCCCC1 | – | – | – | 142 °C | – | – | –
47 | CCC(N)=O | – | -1.42 | 81.3 °C | 213 °C | – | – | –
48 | O=C(O)CCC(=O)OOC(=O)CCC(=O)O | – | – | 127 °C | – | – | – | –
49 | CC(C)=CCC/C(C)=C/C=C/C(C)=C/C=C/C(C)=C/C=C/C=C(C)/C=C/C=C(C)/C=C/C=C(\C)CCCC(C)(C)O | – | – | 171 °C | – | – | – | –
50 | O=c1cn[nH]c(=O)[nH]1 | – | – | 274 °C | – | – | – | –
51 | CCOC(=O)C=[N+]=[N-] | – | 0.447 | -22 °C | – | – | – | –
52 | FC(F)(F)C(F)(F)C(F)(F)C(F)(F)OC(F)(F)C(F)(F)C(F)(F)C(F)(F)F | – | – | -100 °C | 102 °C | – | – | –
53 | C=CCC#N | – | 1.27 | -87 °C | 119 °C | – | – | –
54 | Nc1ccc(Sc2ccc(N)cc2)cc1 | 2.04 | – | 108 °C | 361 °C | – | – | –
55 | O=C(O)c1cc(S(=O)(=O)O)ccc1O | – | – | 120 °C | – | – | – | –
56 | CC(CCCC(=O)O)C(=O)O (stereo not drawn) | – | – | 64 °C | – | – | – | –
57 | CC(C)C=O | – | 2.24 | -65.9 °C | 64.5 °C | – | – | readily biodegradable
58 | FC(Cl)Cl | – | 3.13 | -135 °C | 8.9 °C | – | – | –
59 | CCCCCCCI | – | -0.351 | -48.2 °C | 204 °C | -1.41 | – | –
60 | CC1=CC(=O)C(C2=C(O)C(=O)C(C)=CC2=O)=C(O)C1=O | – | – | 230 °C | – | – | – | –
61 | COc1c(C[C@@H](O)C(C)C)c(=O)n(C)c2c(OC)cccc12 | – | – | 86.5 °C | – | – | – | –
62 | ClC(Cl)(Cl)C(Cl)(Cl)Cl | – | -0.678 | 187 °C | – | -2.41 | 4.47 | not readily biodegradable
63 | N#CC(O)C(Cl)(Cl)Cl (stereo not drawn) | – | – | 61 °C | – | – | – | –

Row | Structure (SMILES) | log10 Koc (L/kg) | log10 vapour pressure (mmHg) | melting point | boiling point | log10 Henry constant (atm·m³/mol) | log10 Koa | ready biodegradability
64 | CCCOP(=S)(OCCC)SCC(=O)N1CCCCC1C (stereo not drawn) | 3.44 | -6.62 | – | – | – | – | –
65 | CC(C)CC(=O)c1ccccc1 | – | – | – | 236 °C | – | – | –
66 | CC(=O)CCC=C(C)C | – | – | -67.1 °C | 174 °C | – | – | readily biodegradable
67 | C=COC(=O)CCC | – | – | 117 °C | – | – | – | –
68 | CC(C)COC(=O)OCC(C)C | – | – | – | 190 °C | – | – | –
69 | CCOC(=O)/C=C\C(=O)OCC | – | -0.979 | -3.65 °C | 218 °C | – | – | –
70 | CC(C)(C(=O)O)n1nc2ccccc2n1 | – | – | 152 °C | – | – | – | –
71 | Cc1cc(-c2ccccc2)nnc1NCCN1CCOCC1 | – | – | 122 °C | – | – | – | –
72 | Cc1cc2ccccc2n1C | – | – | 56.5 °C | – | – | – | –
73 | CC1(c2ccccc2)C(=O)NC(=O)NC1=O | – | – | 220 °C | – | – | – | –
74 | O=[N+]([O-])c1cccc(S(=O)(=O)NCCNS(=O)(=O)c2cccc([N+](=O)[O-])c2)c1 | – | – | 190 °C | – | – | – | –
75 | CCOC(C)(OCC)OCC | – | – | – | 145 °C | – | – | –
76 | Cc1cc(C2(c3cc(C)c(O)c(Br)c3)OS(=O)(=O)c3ccccc32)cc(Br)c1O | – | – | 242 °C | – | – | – | –
77 | C#CC(O)(C=CCl)CC (stereo not drawn) | – | -1 | – | 174 °C | – | – | –
78 | Clc1ccc(Cl)c2c(Cl)cccc12 | – | – | – | – | – | 7.56 | –
79 | C1CCCOCC1 | – | – | – | 119 °C | – | – | –
80 | OCc1cccc(F)c1 | – | – | – | 201 °C | – | – | –
81 | Clc1ccccc1-c1c(Cl)cccc1Cl | – | – | – | – | -3.64 | – | –
82 | CCCOC(=O)c1ccccc1O | – | – | 97 °C | 239 °C | – | – | –
83 | C1CCCNCCC1 | – | – | 29 °C | – | – | – | –
84 | CCOP(=S)(OCC)Oc1nc(Cl)n(C(C)C)n1 | 2.01 | -4.06 | – | – | – | – | –

same assay, conditions: fish

Row | Structure (SMILES) | log10 biotransformation half-life (days) | log10 BCF
85 | Clc1cc(Cl)c(-c2cc(Cl)c(Cl)c(Cl)c2Cl)c(Cl)c1 | 2.51 | –
86 | C=CC1CC=CCC1 (stereo not drawn) | -0.41 | 2.22
87 | CCCN(CCC)c1c([N+](=O)[O-])cc(C(F)(F)F)cc1[N+](=O)[O-] | 0.62 | 3.36
88 | ClC(Cl)(Cl)C(Cl)(Cl)Cl | 0.76 | 2.71
89 | Clc1ccccc1-c1c(Cl)cccc1Cl | 2.5 | –

From the OPERA property sets (Mansouri et al. 2018)
